The target in experiment [1] is T1, Alpha-1A adrenergic receptor (Homo sapiens, UniProt P35348).
T1 sequence (P35348 whole entry): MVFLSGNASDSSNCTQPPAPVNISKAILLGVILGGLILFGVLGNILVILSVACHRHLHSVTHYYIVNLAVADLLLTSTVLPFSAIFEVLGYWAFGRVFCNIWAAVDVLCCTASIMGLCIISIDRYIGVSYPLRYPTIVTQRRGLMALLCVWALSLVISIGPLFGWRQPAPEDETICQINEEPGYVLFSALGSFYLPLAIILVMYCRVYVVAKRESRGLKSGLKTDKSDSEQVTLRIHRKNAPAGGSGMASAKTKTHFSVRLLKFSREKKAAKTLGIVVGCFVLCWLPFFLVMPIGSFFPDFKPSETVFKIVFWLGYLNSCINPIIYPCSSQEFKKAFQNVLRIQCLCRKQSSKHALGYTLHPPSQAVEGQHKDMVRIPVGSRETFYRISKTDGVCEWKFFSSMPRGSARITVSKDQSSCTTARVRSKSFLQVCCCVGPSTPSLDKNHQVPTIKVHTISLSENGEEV
In kind it is functional, cell-based.

The target in another experiment is Mu-type opioid receptor (Homo sapiens, UniProt P35372).
In a further experiment the target is T2, Thromboxane A2 receptor (Homo sapiens, UniProt P21731).
T2 sequence (P21731 whole entry): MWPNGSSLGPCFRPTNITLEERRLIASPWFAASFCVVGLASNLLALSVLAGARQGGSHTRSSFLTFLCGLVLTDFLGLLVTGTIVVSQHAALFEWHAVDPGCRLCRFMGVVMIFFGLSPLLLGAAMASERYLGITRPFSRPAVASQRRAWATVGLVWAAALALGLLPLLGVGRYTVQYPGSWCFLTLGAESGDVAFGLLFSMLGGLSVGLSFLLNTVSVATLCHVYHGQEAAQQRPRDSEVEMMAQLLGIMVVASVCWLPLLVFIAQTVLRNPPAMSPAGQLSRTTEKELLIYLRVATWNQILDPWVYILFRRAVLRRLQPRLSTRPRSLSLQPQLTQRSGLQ
In kind it is functional, cell-based.

The next experiment deals with Vasopressin V2 receptor (Homo sapiens, UniProt P30518).
Experiment [2] addresses Muscarinic acetylcholine receptor M3 (Homo sapiens, UniProt P20309).
The target of experiment [3] is Gamma-aminobutyric acid receptor subunit alpha-1 (Rattus norvegicus, UniProt P62813).
The target in a further experiment is Histamine H2 receptor (Homo sapiens, UniProt P25021). In kind it is functional, cell-based.
Another experiment deals with T3, Progesterone receptor (Homo sapiens, UniProt P06401).
T3 sequence (P06401 whole entry): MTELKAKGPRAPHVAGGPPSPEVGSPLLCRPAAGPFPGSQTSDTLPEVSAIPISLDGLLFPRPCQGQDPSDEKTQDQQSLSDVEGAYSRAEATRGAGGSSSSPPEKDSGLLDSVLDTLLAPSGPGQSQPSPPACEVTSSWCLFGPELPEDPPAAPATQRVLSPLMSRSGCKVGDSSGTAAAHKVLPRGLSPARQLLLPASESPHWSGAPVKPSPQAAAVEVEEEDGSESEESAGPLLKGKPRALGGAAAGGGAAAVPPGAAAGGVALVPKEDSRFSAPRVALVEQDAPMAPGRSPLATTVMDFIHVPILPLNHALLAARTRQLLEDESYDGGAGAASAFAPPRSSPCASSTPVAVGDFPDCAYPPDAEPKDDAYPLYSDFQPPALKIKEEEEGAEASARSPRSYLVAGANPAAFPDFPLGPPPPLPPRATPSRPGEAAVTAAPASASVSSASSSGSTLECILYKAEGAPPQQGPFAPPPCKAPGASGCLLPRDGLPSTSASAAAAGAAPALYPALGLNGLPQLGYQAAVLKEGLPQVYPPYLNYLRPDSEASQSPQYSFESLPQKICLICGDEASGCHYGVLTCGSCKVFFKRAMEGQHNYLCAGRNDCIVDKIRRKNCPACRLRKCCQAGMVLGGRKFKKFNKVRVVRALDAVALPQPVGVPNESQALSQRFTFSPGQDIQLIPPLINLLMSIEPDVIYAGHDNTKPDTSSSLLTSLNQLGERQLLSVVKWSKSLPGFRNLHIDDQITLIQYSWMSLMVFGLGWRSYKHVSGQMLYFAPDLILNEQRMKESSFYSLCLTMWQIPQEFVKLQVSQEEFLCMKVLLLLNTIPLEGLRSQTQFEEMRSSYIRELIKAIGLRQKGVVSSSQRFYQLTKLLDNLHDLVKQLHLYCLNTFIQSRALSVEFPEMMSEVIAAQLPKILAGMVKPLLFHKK
The experiment is classed as functional.

The target of experiment [4] is T1, Alpha-1A adrenergic receptor. The experiment is classed as functional, cell-based. The source holds these as a separate data set.
Experiment [5] addresses T4, Alpha-2B adrenergic receptor (Homo sapiens, UniProt P18089).
T4 sequence (P18089 whole entry): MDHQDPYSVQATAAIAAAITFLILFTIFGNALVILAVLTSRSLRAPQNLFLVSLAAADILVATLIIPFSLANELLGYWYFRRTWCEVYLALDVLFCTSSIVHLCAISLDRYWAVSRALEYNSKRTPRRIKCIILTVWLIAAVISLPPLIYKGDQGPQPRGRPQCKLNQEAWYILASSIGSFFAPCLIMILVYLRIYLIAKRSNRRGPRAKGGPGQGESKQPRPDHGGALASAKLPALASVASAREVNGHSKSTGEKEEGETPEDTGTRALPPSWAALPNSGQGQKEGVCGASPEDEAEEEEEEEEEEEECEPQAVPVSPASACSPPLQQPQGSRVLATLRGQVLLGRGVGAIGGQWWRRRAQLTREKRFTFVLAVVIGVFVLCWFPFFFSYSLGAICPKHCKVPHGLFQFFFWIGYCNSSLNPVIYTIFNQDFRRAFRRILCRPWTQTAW

The term AC50 denotes the concentration at which the activity in the assay is half-maximal.
Further: assay procedure not described here.

Sequence of Mu-type opioid receptor (P35372 whole entry): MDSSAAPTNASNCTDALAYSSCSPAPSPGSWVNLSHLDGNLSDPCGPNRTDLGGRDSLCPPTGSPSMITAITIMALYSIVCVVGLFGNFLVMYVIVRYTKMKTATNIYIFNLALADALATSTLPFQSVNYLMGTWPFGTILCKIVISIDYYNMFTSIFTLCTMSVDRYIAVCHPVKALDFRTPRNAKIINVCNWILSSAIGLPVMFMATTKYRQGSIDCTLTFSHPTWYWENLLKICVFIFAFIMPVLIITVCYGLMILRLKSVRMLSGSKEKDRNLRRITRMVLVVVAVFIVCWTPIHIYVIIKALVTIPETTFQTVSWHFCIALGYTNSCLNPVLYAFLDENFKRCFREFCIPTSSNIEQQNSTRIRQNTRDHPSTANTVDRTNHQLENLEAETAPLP
Sequence of Vasopressin V2 receptor (P30518 whole entry): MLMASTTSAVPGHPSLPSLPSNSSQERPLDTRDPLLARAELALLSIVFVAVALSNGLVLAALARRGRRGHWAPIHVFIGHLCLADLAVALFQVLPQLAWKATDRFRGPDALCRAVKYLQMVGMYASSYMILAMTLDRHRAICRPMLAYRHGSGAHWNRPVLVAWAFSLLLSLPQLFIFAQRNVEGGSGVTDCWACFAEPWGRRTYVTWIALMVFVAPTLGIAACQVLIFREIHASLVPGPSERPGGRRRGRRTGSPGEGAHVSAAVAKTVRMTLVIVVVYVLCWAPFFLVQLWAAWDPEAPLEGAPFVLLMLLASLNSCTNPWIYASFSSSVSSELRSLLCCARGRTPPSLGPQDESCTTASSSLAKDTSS
Sequence of Gamma-aminobutyric acid receptor subunit alpha-1 (P62813 whole entry): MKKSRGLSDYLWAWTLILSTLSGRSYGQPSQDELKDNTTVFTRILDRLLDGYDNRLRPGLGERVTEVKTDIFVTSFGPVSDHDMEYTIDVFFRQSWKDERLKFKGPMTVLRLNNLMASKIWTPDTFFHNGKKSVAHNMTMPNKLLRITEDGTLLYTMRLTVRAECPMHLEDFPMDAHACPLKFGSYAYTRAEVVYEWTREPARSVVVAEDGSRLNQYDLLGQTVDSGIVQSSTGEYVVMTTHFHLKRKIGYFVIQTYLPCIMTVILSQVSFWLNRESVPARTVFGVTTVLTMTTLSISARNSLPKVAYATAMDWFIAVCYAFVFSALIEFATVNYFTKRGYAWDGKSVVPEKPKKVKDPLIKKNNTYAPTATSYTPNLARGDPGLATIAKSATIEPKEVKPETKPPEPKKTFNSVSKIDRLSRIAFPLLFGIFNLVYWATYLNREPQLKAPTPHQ
Sequence of Muscarinic acetylcholine receptor M3 (P20309 whole entry): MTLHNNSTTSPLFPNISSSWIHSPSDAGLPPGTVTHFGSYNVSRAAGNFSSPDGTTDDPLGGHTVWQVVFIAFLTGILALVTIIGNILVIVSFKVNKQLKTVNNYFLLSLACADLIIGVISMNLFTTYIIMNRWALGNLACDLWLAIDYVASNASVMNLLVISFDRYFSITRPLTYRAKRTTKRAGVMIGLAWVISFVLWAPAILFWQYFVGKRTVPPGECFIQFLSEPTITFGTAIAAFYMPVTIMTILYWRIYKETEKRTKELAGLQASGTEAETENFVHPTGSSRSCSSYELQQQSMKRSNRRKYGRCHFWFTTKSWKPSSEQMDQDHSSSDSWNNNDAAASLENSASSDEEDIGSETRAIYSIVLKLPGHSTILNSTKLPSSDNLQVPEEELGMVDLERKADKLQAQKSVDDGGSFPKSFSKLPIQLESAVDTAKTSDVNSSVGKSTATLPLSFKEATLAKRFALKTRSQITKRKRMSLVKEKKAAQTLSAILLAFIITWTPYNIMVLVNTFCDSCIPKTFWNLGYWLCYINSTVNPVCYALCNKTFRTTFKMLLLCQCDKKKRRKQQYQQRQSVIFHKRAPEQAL
Sequence of Histamine H2 receptor (P25021 whole entry): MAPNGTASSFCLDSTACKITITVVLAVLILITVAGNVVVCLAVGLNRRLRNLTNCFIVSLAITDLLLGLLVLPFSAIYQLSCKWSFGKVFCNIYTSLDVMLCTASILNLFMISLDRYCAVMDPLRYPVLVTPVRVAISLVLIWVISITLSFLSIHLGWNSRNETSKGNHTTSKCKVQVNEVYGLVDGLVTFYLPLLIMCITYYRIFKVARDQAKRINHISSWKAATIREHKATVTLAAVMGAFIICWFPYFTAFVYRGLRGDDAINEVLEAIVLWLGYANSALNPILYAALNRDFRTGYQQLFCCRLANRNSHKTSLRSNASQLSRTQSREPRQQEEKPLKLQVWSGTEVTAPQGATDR

As to `O=C(O)c1cc(O)ccc1O` [GENTISIC ACID], the AC50 (in experiment [1]; on Mu-type opioid receptor; on Thromboxane A2 receptor) was more than 30 µM in each case.

As for `CN(C)CC(c1ccc(O)cc1)C1(O)CCCCC1` (stereo not drawn) [DESVENLAFAXINE], the AC50 is more than 30 µM in experiment [1], 28.4 µM on Mu-type opioid receptor and more than 30 µM at Thromboxane A2 receptor.

Consider `OCCN1C[C@H](O)[C@@H](O)[C@H](O)[C@H]1CO` [MIGLITOL], for which the AC50 (in experiment [1]; on Mu-type opioid receptor; on Thromboxane A2 receptor) was more than 30 µM throughout.

`CCC(=O)NCC[C@@H]1CCc2ccc3c(c21)CCO3` [RAMELTEON]: the AC50 (in [1]; at Mu-type opioid receptor; at Thromboxane A2 receptor) was more than 30 µM in each case.

On to `C[N+](C)(C)CCO` [CHOLINE], for which the AC50 (in experiment [1]; at Mu-type opioid receptor; on Thromboxane A2 receptor) was more than 30 µM throughout.

In the case of `C[C@]12CC[C@@H]3c4ccc(O)cc4CC[C@H]3[C@@H]1C[C@@H](O)[C@@H]2O` [ESTRIOL], the AC50 (in [1]; at Mu-type opioid receptor; on Thromboxane A2 receptor) was more than 30 µM each time.

For `CCCCCCOc1nsnc1C1=CCCN(C)C1` [XANOMELINE], the AC50 was 13.2 µM in experiment [1], more than 30 µM at Mu-type opioid receptor and more than 30 µM on Thromboxane A2 receptor.

Consider `Cc1nc([N+](=O)[O-])cn1-c1ccc([N+](=O)[O-])cc1` [NITREFAZOLE], for which the AC50 (at Vasopressin V2 receptor; in [2]; in experiment [3]; at Histamine H2 receptor; on Progesterone receptor; in experiment [4]) was more than 30 µM in each case.

As to `CC(C)(S)[C@@H](N)C(=O)O` [PENICILLAMINE], the AC50 (in experiment [1]; on Mu-type opioid receptor; at Thromboxane A2 receptor) was more than 30 µM each time.

For `CN(C)CCN1C(=O)c2ccccc2N(C)c2ccccc21` [DIBENZEPIN], the results for the AC50 (in experiment [1]; on Mu-type opioid receptor; on Thromboxane A2 receptor) were 22.5 µM, 28.8 µM and more than 30 µM, respectively.

Take `CCc1oc2ccccc2c1C(=O)c1cc(I)c(O)c(I)c1` [BENZIODARONE]: the AC50 on Mu-type opioid receptor is 9.64 µM; at Thromboxane A2 receptor, 29 µM.

As for `O=C(CCNNC(=O)c1ccncc1)NCc1ccccc1` [NIALAMIDE], the AC50 (in [1]; on Mu-type opioid receptor; on Thromboxane A2 receptor) was more than 30 µM in each case.

Turning to `CC[N+]1(C)[C@@H]2CC(OC(=O)[C@H](CO)c3ccccc3)C[C@H]1[C@@H]1O[C@@H]12` (stereo partly drawn) [OXITROPIUM], the AC50 (in experiment [1]; at Mu-type opioid receptor; at Thromboxane A2 receptor) was more than 30 µM throughout.

In the case of `CC(C)Nc1ncccn1` [ISAXONINE], the AC50 (in [1]; on Mu-type opioid receptor; at Thromboxane A2 receptor) was more than 30 µM throughout.

Turning to `CC(=O)N[C@@H]1[C@@H](O)[C@H](O)[C@@H](CO)O[C@H]1O` [N-ACETYLGLUCOSAMINE], the AC50 (in experiment [1]; at Mu-type opioid receptor; at Thromboxane A2 receptor) was more than 30 µM each time.

Turning to `COCc1c(C(C)C)nc(C(C)C)c(/C=C/[C@@H](O)C[C@@H](O)CC(=O)O)c1-c1ccc(F)cc1` [CERIVASTATIN], the AC50 (in experiment [1]; at Mu-type opioid receptor; on Thromboxane A2 receptor) was more than 30 µM each time.

Regarding `COc1cc(NC(C)CCCN)c2ncccc2c1` (stereo not drawn) [PRIMAQUINE], the half-maximal activity concentration (AC50) at Vasopressin V2 receptor and at Thromboxane A2 receptor was more than 30 µM throughout.

For `CN(C)S(=O)(=O)c1ccc2c(c1)N(CCCN1CCC(CCO)CC1)c1ccccc1S2` [PIPOTIAZINE], the AC50 is more than 30 µM in [1], 3.4 µM at Mu-type opioid receptor and more than 30 µM on Thromboxane A2 receptor.

In the case of `Oc1c(Cl)cc(Cl)c2cccnc12` [CHLOROXINE], the AC50 (in experiment [1]; at Mu-type opioid receptor; on Thromboxane A2 receptor) was more than 30 µM in each case.

Regarding `N[C@H](C(=O)O)[C@H](O)c1ccc(O)c(O)c1` [DROXIDOPA], the AC50 in experiment [1] was 10.4 µM; on Mu-type opioid receptor, more than 30 µM; at Thromboxane A2 receptor, more than 30 µM.

In the case of `CN(C)CCn1nnnc1SCC1=C(C(=O)O)N2C(=O)[C@@H](NC(=O)Cc3csc(N)n3)[C@H]2SC1` [CEFOTIAM], the AC50 (in [1]; at Mu-type opioid receptor; at Thromboxane A2 receptor) was more than 30 µM throughout.

Consider `COc1cc2nc(N(C)CCCNC(=O)C3CCCO3)nc(N)c2cc1OC` (stereo not drawn) [ALFUZOSIN], for which the AC50 in experiment [5] is 8.9 µM; on Vasopressin V2 receptor it was more than 30 µM; in experiment [2], more than 30 µM; in experiment [3] it was more than 30 µM; at Histamine H2 receptor it was more than 30 µM; at Progesterone receptor, more than 30 µM.

`C=C[C@H]1C[N@@]2CC[C@H]1C[C@H]2[C@H](O)c1ccnc2ccc(OC)cc12` [QUININE]: the AC50 at Mu-type opioid receptor is 8.38 µM; at Thromboxane A2 receptor it was more than 30 µM.

On to `Cc1cc(C#N)cc(C)c1Oc1nc(Nc2ccc(C#N)cc2)nc(N)c1Br` [ETRAVIRINE], for which the AC50 in [1] is more than 10 µM; on Mu-type opioid receptor, 19.1 µM; at Thromboxane A2 receptor, more than 10 µM.

On to `CC(C)(C)NC[C@H](O)COc1ccccc1C1CCCC1` [PENBUTOLOL], for which the values for the concentration at half-maximal activity (AC50) (in [1]; at Mu-type opioid receptor; at Thromboxane A2 receptor) were more than 30 µM, 11.9 µM and more than 30 µM, respectively.

Regarding `CCC1=C(C)CN(C(=O)NCCc2ccc(S(=O)(=O)NC(=O)N[C@H]3CC[C@H](C)CC3)cc2)C1=O` [GLIMEPIRIDE], the AC50 (in experiment [1]; on Mu-type opioid receptor; on Thromboxane A2 receptor) was more than 30 µM each time.

For `N[C@@H](C(=O)N[C@@H]1C(=O)N2C(C(=O)O)=C(Cl)CC[C@H]12)c1ccccc1` [LORACARBEF ANHYDROUS], the AC50 (in experiment [1]; at Mu-type opioid receptor; at Thromboxane A2 receptor) was more than 30 µM each time.

Turning to `CN(C)[C@@H](c1cccc(O)c1)[C@H]1CCCC[C@H]1O` [CIRAMADOL], the AC50 is more than 30 µM in [1], 0.0059 µM on Mu-type opioid receptor and more than 30 µM at Thromboxane A2 receptor.

As to `COC(c1ccccc1)(c1ccccc1)[C@H](Oc1nc(C)cc(C)n1)C(=O)O` [AMBRISENTAN], the AC50 (in experiment [1]; on Mu-type opioid receptor; at Thromboxane A2 receptor) was more than 30 µM throughout.

Regarding `CCOC(=O)[C@H](CCc1ccccc1)N[C@@H](C)C(=O)N1[C@H](C(=O)O)C[C@H]2CCCC[C@@H]21` [TRANDOLAPRIL], the AC50 (in experiment [1]; at Mu-type opioid receptor; at Thromboxane A2 receptor) was more than 30 µM throughout.

The values are drawn from ChEMBL document CHEMBL5291721, “A preclinical secondary pharmacology resource illuminates target-adverse drug reaction associations of marketed drugs” (Nat Commun, 2023).
